Data reported in US10408813B2, “Biosensor for detecting intracellular cyclic adenosine monophosphate (cAMP) and uses thereof” (Academia Sinica, priority 2015, dated 2019).

Tests used:
GPR119 = molecular target: T1, GPR119 (Homo sapiens, UniProt Q8TDV5); settings: literature (34); read-out: reported EC50 to activate GPR119; cited from earlier work
T1 sequence (Q8TDV5 1-335): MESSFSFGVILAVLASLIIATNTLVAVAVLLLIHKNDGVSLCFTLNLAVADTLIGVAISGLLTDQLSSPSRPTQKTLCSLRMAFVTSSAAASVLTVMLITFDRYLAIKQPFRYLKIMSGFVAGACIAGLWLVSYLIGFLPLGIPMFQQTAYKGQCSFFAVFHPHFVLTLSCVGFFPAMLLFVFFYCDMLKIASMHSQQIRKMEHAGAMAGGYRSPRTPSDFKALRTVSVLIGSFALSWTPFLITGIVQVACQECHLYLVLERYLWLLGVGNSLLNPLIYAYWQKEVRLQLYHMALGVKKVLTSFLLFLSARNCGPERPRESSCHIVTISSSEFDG

His-tagged GLP-1 (7-36) = molecular target: T2, His-tagged GLP-1 (7-36) (Homo sapiens, UniProt P01275); test: GLP-1 and OEA binding assay (3H-OEA, Cu-NTA resin capture)
T2 construct: purchased LifeTein
Experimental: Specific bound ^3H-OEA was obtained by subtracting the supernatant ^3H-OEA of reaction from supernatant ^3H-OEA of reaction without GLP-1. […] Copper-nitrilotriacetate resin (Cu^++-NTA), 3 uL in 30 uL of DPBS, was added to capture all the His-tagged GLP-1 (up to 60 uM in 80 uL reaction), further incubated with rotation at RT for 30 min. […] Bound ^3H-OEA=[supernatant ^3H-OEA of nonspecific binding]−[supernatant ^3H-OEA of total binding]. […] The bound ^3H-OEA and free ^3H-OEA were separated as described above, and specific binding was calculated; Bound ^3H-OEA=[supernatant ^3H-OEA of nonspecific binding reaction]−[supernatant ^3H-OEA in the total binding reaction]

GLP-1R = GLP-1R (UniProt P01275+P32301); test: BRET cAMP response assay in RINm5F cells, GLP-1R-mediated cAMP production; type: cell-based, rat; settings: for effect on cAMP responses to 200 μM of GLP-1 (7-36) amide: 9 uM OEA or 8.4 uM 2-OG; for effect on dose-response curve for GLP-1 (7-36) amide to stimulate cAMP production: lipid at 9 to 8 uM; for effect on potency of Ex-4 to stimulate cAMP production: lipid up to 27 uM; for effect on dose response curve / potency of GLP-1 (7-36) amide: lipids at concentrations indicated in FIG. 4C-E (ODA 72 uM); for effect on dose response curve of GLP-1 (7-36) amide: OA and LA at 106 and 107 uM, respectively
Chain of GLP-1R (P32301 22-463, one chain of several): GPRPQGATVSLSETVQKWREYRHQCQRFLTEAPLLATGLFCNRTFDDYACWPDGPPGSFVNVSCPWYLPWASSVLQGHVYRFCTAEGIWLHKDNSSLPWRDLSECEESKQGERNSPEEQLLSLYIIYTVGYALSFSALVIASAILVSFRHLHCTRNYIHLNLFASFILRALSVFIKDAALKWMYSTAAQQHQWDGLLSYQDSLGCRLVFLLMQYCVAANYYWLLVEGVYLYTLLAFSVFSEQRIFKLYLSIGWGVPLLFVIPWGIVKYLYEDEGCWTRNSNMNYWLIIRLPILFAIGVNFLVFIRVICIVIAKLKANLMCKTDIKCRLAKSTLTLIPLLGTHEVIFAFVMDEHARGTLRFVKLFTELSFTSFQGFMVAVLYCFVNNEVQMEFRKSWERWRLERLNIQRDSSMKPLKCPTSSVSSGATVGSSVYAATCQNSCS

RINm5F cells = test: BRET cAMP response assay, lipids present alone; type: cell-based, rat; settings: 28 μM for 2-OG
[1] = molecular target: RG-cAMP sensor in RINm5F cells (Homo sapiens, UniProt O95398, F824A/R193G/T823A); test: BRET assay with RG-cAMP sensor, titration of membrane-permeable cAMP analog
adenylyl cyclase = test: BRET assay with RG-cAMP sensor, adenylyl cyclase activation by forskolin
trypsin = molecular target: T3, trypsin (Sus scrofa, UniProt P00761); test: In vitro assay of trypsin activity in the presence of OEA; type: biochemical; settings: 92 uM OEA, 0.000125% trypsin
T3 construct: purchased Life Technologies (trypsin-EDTA, inferred); assay kit from BioVision
T3 sequence (P00761 9-231): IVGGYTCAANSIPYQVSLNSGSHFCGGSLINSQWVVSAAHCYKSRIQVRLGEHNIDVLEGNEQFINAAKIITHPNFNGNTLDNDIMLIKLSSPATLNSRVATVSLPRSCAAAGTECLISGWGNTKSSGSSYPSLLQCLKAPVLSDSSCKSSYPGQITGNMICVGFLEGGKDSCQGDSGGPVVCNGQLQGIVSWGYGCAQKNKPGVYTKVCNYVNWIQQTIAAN
Experimental: To determine whether OEA affects trypsin activity, we used the Trypsin Activity Colorimetric Test Kit (BioVision, Milpitas, Calif., USA). Briefly, 2 μL substrate was added to a well in 96-well plate containing 48 μL 0.000125% trypsin in the presence or absence of 92 uM OEA. Reactions were conducted at room temperature, and the extent of cleavage was monitored by real-time reading of optical density (OD) at 405 nm

GLP-1R-V2R membrane = molecular target: T4, GLP-1R-V2R membrane (Homo sapiens, UniProt P01275+P43220); test: Receptor binding assay, saturation binding of 125I-GLP-1(7-36)
T4 construct: the first 440 amino acids of the GLP-1R (Met1 to Thr440); expressed in transfected cells; host or cells: U2OS osteosarcoma cells stably co-expressing β-arrestin2:GFP; membrane preparation
T4 sequence (P43220 with tags, fused parts or gaps limits assumed, one chain of several): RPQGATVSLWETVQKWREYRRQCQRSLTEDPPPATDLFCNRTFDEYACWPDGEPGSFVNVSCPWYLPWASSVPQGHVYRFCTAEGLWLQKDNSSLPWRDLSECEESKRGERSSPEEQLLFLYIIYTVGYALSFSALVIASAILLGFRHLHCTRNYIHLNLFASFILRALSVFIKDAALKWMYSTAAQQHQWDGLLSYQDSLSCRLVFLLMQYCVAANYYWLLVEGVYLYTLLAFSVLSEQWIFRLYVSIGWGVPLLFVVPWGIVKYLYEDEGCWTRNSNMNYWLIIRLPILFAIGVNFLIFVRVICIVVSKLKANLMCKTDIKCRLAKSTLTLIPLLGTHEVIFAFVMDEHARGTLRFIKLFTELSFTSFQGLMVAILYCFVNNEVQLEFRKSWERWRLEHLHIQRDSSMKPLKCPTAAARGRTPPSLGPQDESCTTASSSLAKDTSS

GLP-1 (7-36) amide = molecular target: T5, GLP-1 (7-36) amide (Homo sapiens, UniProt P01275); test: Limited trypsin digestion of GLP-1 (7-36) amide, residual activity by cAMP response in RINm5F cells
T5 construct: purchased LifeTein

receptors for GIP = molecular target: T6, receptors for GIP (Rattus norvegicus, UniProt P43219); test: BRET cAMP response assay in RINm5F cells, GIP receptor; type: cell-based; settings: 5 uM antagonist (FIG. 3B)
T6 sequence (P43219 19-455): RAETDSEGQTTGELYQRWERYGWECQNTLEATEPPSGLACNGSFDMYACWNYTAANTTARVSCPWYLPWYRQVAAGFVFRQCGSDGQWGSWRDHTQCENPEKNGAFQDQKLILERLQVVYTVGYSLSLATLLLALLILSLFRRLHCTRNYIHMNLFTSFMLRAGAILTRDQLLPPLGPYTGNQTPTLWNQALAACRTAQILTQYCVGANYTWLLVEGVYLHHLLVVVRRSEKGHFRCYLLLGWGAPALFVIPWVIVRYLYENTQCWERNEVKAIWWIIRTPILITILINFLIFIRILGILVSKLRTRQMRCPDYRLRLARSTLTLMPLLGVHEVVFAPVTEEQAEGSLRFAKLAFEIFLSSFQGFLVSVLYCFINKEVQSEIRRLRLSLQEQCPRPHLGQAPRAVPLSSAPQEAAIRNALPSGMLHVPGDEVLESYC

receptors for glucagon = receptors for glucagon (Rattus norvegicus, UniProt P30082); test: BRET cAMP response assay in RINm5F cells, glucagon receptor; type: cell-based; settings: 100 uM antagonist (FIG. 3C)
Chain of receptors for glucagon (P30082 27-485): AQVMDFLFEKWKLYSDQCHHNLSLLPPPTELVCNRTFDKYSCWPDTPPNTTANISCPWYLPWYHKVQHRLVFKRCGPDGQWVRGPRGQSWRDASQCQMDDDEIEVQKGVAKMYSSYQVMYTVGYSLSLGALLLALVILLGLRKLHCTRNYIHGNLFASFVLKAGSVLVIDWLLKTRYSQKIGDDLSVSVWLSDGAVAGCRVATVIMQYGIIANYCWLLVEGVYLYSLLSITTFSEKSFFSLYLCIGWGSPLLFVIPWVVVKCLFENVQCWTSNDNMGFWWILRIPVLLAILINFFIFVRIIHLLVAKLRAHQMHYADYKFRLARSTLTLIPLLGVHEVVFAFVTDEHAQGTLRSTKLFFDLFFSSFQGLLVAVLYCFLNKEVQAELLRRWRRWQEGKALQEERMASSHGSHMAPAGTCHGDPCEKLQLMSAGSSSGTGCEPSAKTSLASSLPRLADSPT

[2] = RINm5F cells stably expressing RG-cAMP sensor

Compound: CCCCCCCC/C=C\CCCCCCCC(=O)OC(CO)CO [2-OG, 2-oleoylglycerol]
- EC50 (GPR119): 2900 nM
- Ki (His-tagged GLP-1 (7-36)): 100 ± 30 nM
- effect on cAMP responses to 200 μM of GLP-1 (7-36) amide (GLP-1R): remarkably enhanced
- effect on dose-response curve for GLP-1 (7-36) amide to stimulate cAMP production (GLP-1R): markedly left-shifted
- effect on potency of Ex-4 to stimulate cAMP production (GLP-1R): unaltered
- cAMP response to lipid present alone (RINm5F cells): did not elicit cAMP responses

Compound: COC1C2OP(=O)(OCOC(C)=O)OCC2OC1n1c(Br)nc2c(N)ncnc21 (stereo not shown) [8-Br-2-O-Me-cAMP-AM, 8-Br-2′-O-Me-cAMP-AM]
- concentration at which half maximal reduction of BRET ratio is elicited (EC50) [1, 2]: 2600 nM
- BRET ratio reduction ([1]; concentration change from 0.2 μM to 50 μM): 0.45 unit

Compound: CC/C=C\C/C=C\C/C=C\CCCCCCCC(=O)O [ALA, α-linolenic acid]
- effect on dose response curve / potency of GLP-1 (7-36) amide (GLP-1R): did not show such an effect

Compound: CCCCC/C=C\C/C=C\CCCCCCCC(=O)O [LA, linoleic acid]
- effect on dose response curve of GLP-1 (7-36) amide (GLP-1R): consistently but mildly left-shifted

Compound: Cl.c1ccc(C2CCCC2NC2=NCCCCCCCCCCC2)cc1 (stereo not shown) [MDL-12,330A]
- effect on forskolin-elicited BRET response (adenylyl cyclase; 250 μM inhibitor): eliminated

Compound: CCCCCCCC/C=C\CCCCCCCC(=O)O [OA, oleic acid]
- effect on dose response curve of GLP-1 (7-36) amide (GLP-1R): consistently but mildly left-shifted

Compound: CCCCCCCC/C=C\CCCCCCCC(=O)NCCc1ccc(O)c(O)c1 [ODA, n-oleoyldopamine]
- effect on dose response curve / potency of GLP-1 (7-36) amide (GLP-1R): did not affect GLP-1 potency

Compound: CCCCCCCC/C=C\CCCCCCCC(=O)NCCO [OEA, oleoylethanolamide]
- EC50 (GPR119): 2900 nM
- effect on innate trypsin activity (trypsin): does not affect the innate trypsin activity
- Bmax of 125I-GLP-1 (GLP-1R-V2R membrane; in the presence of 9.2 uM OEA): 51±6.5 pmole/mg of membrane
- factor of reduction of residual activity of GLP-1 (7-36) amide after trypsin digestion (GLP-1 (7-36) amide; 0.00067% trypsin, OEA increased from 1 uM to 92 uM): more than 40
- factor of reduction of GLP-1 activity after trypsin cleavage (GLP-1 (7-36) amide; trypsin cleavage in the presence of 92 uM OEA): more than 300
- effect on cAMP responses to 200 μM of GLP-1 (7-36) amide (GLP-1R): remarkably enhanced
- effect on dose-response curve for GLP-1 (7-36) amide to stimulate cAMP production (GLP-1R): markedly left-shifted
- effect on potency of Ex-4 to stimulate cAMP production (GLP-1R): unaltered
- cAMP response to lipid present alone (RINm5F cells): did not elicit cAMP responses

Compound: CCCCCCCCCCCCCCCC(=O)NCCO [PEA, palmitoylethanolamide]
- effect on dose response curve / potency of GLP-1 (7-36) amide (GLP-1R): did not affect GLP-1 potency

Compound: CCCCCCCCCCCCCCCCCC(=O)O [SA, stearic acid]
- effect on dose response curve / potency of GLP-1 (7-36) amide (GLP-1R): did not show such an effect

Compound: CCCCCCCCCCCCCCCCCC(=O)NCCO [SEA, stearoylethanolamide]
- effect on trypsin digestion of GLP-1 (7-36) amide (GLP-1 (7-36) amide; 1 uM to 92 uM lipid, 0.00067% trypsin): did not affect trypsin digestion
- effect on binding of 3H-OEA to His-tagged GLP-1(7-36) (His-tagged GLP-1 (7-36); competition assay): did not affect the binding
- effect on dose response curve / potency of GLP-1 (7-36) amide (GLP-1R): did not affect GLP-1 potency

Compound: [3H]/C(CCCCCCCC)=C(\[3H])CCCCCCCC(=O)NCCO [^3H-OEA, Oleoyl [9,10-^3H]ethanolamide, reference compound]
- specific binding to GLP-1 receptor (GLP-1R-V2R membrane): not able to observe detectable specific binding
- concentration of 3H-OEA to achieve half-maximal binding (His-tagged GLP-1 (7-36); 0.1 uM His-tagged GLP-1 (7-36), estimated): 0.28 ± 0.07 µM

Compound: C=C[C@@]1(C)CC(=O)[C@]2(O)[C@@]3(C)[C@@H](O)CCC(C)(C)[C@@H]3[C@H](O)[C@H](OC(C)=O)[C@@]2(C)O1 [forskolin]
- EC50 for reduction of BRET ratio (adenylyl cyclase; [2]): 70 nM
- BRET ratio reduction, basal cAMP level to maximally stimulated (adenylyl cyclase; maximal forskolin stimulation): 0.3 unit

Compound: CCCCC/C=C\C/C=C\C/C=C\CCCCC(=O)O [γ-LA, γ-linolenic acid]
- effect on dose response curve / potency of GLP-1 (7-36) amide (GLP-1R): did not show such an effect

Compound: Ex-9: GLP-1 receptor antagonist exendin 9 [reference compound]
- effect of antagonist on cAMP response to GLP-1 (7-36) amide (GLP-1R; 500 nM antagonist (FIG. 3A)): curtailed
- lipid enhancement and cAMP responses with GLP-1 receptor signaling blocked (GLP-1R; 500 nM exendin 9, GLP-1 (7-36) amide with OEA or 2-OG): barely detectable

Compound: GIP(8-42): GIP antagonist, SEQ ID NO: 14 (SDYSIAMDKIHQQDFVNWLLAQKGKKNDWKHNITQ; GIP 8-42)
- effect of antagonist on cAMP response to GIP (receptors for GIP): curtailed

Compound: His-tagged GLP-1 (7-36): SEQ ID NO: 6, six consecutive histidine residues tagged to the C-terminal of GLP-1 (7-36) peptide (HAEGTFTSDVSSYLEGQAAKEFIAWLVKGRHHHHHH; His-tagged GLP-1 (7-36)) [reference compound]
- concentration of GLP-1 to achieve half-maximal binding of OEA (His-tagged GLP-1 (7-36); 0.2 uM 3H-OEA, estimated): 0.16 ± 0.05 µM

Compound: [des-His1,Glu9]-glucagon amide: glucagon antagonist
- effect of antagonist on cAMP response to glucagon (receptors for glucagon): curtailed
